Reference: patent publication US20140073505A1, “HERBICIDAL COMPOSITIONS COMPRISING AMINOPYRALID AND TRICLOPYR” (DOW AGROSCIENCES LLC, priority 2012, published 2014)
Where a name gives a salt, the structure may show the parent alone.

Assays:
Assay type in all cases: in vivo
[1] = test system: Rumex obtusifolius L. (broadleaf dock, RUMOB); test: Postemergence herbicidal activity under field conditions in pastures, visual weed control
Method: (§1) These trials were conducted under field conditions in Ibague, Colombia; Geisenbrunn, Germany; and Montarges, France. Trial sites were located in commercially grown fields of common rice (Oryza sativa) or permanent pastures. The rice and pasture crops were grown using normal cultural practices for fertilization, seeding, and maintenance to ensure good growth of the crop and the weeds. The trials were conducted using normal research methodology. Trial plots were 2-3 meters (m) wide by 6 m long. All treatments were applied using a randomized complete block trial design with 3 to 4 replications per treatment. The trial sites had naturally occurring populations of weeds. The weed spectrum included, but was not limited to, Cyperus iria L. (rice flatsedge, CYPIR), Eclipta prostrata (L.) L. (eclipta, ECLAL), Ludwigia linifolia (ludwigia, LUDLI), Taraxacum officinale G. H. Weber ex Wiggers (dandelion, TAROF), Rumex obtusifolius L. (broadleaf dock, RUMOB) and Urtica dioica L. (common nettle, URTDI). The plots were treated with a postemergence foliar application 15 to 20 days after emergence of the rice or during the normal timing of herbicide application used for weed control in pastures/grasslands.
(§2) Treatments consisted of tank mixes of commercially available formulations of aminopyralid triisopropanolammonium salt (MILESTONE 240SL), triclopyr butotyl (GARLON4 480EC) and an experimental formulation of the aminopyralid potassium salt (GF-389), with all rice treatments tankmixed with adjuvant (CARRIER 80EC) at 0.5% volume per volume (vol/vol) but no adjuvant was used in any of the pasture treatments. The application volume was 200 liters per hectare (L/ha) of water. All applications were made using precision gas hand sprayers using a 2 m boom using flat fan (8002) nozzles to broadcast the treatments over the top of the target crop (rice and pastures) and weeds.
(§3) The treated plots and control plots were rated blind at various intervals after application. Ratings were based of Percent (%) Visual weed control, where 0 corresponds to no injury and 100 corresponds to complete kill.
(§4) Colby's equation was used to determine the herbicidal effects expected from the mixtures (Colby, S. R. Calculation of the synergistic and antagonistic response of herbicide combinations. Weeds 1967 15, 20-22).
(§5) The following equation was used to calculate the expected activity of mixtures containing two active ingredients, A and B:
(§6) A=observed efficacy of active ingredient A at the same concentration as used in the mixture;
(§7) B=observed efficacy of active ingredient B at the same concentration as used in the mixture.

[2] = test system: Taraxacum officinale G. H. Weber ex Wiggers (dandelion, TAROF); test: as above; conditions: for Visual Weed Control (%) TAROF 178 DAA Obs: first 178 DAA column; for Visual Weed Control (%) TAROFI 178 DAA Obs: second 178 DAA column
Method: as §1, §2, §3, §4, §5, §6, §7

[3] = test system: Urtica dioica L. (common nettle, URTDI); test: as above
Method: as §1, §2, §3, §4, §5, §6, §7

[4] = test system: Cyperus iria L. (rice flatsedge, CYPIR); test: Postemergence herbicidal activity under field conditions in rice, visual weed control
Method: as §1, §2, §3, §4, §5, §6, §7

[5] = test system: Eclipta prostrata (L.) L. (eclipta, ECLAL); test: as above
Method: as §1, §2, §3, §4, §5, §6, §7

[6] = test system: Ludwigia linifolia (ludwigia, LUDLI); test: as above
Method: as §1, §2, §3, §4, §5, §6, §7

Nc1cc(Cl)nc(C(=O)O)c1Cl [Aminopyralid potassium salt, 4-amino-3,6-dichloro-2-pyridinecarboxylic acid]
Visual Weed Control (%) RUMOB 13 DAA Obs ([1]; aminopyralid 60 g ae/ha alone): 82% | Visual Weed Control (%) TAROF 13 DAA Obs ([2]; first TAROF column, aminopyralid 60 g ae/ha alone): 57% | Visual Weed Control (%) TAROF 13 DAA Obs ([2]; second TAROF column, aminopyralid 60 g ae/ha alone): 45% | Visual Weed Control (%) TAROF 122 DAA Obs ([2]; aminopyralid 60 g ae/ha alone): 80% | Visual Weed Control (%) TAROF 178 DAA Obs ([2]; aminopyralid 60 g ae/ha alone): 73% | Visual Weed Control (%) TAROFI 178 DAA Obs ([2]; aminopyralid 60 g ae/ha alone): 73% | Visual Weed Control (%) TAROF 378 DAA Obs ([2]; 378 DAA, first TAROF column, aminopyralid 60 g ae/ha alone): 40% | Visual Weed Control (%) TAROF 378 DAA Obs ([2]; 378 DAA, second TAROF column, aminopyralid 60 g ae/ha alone): 40% | Visual Weed Control (%) URTDI 342 DAA Obs ([3]; aminopyralid 60 g ae/ha alone): 17%

Nc1cc(Cl)nc(C(=O)O)c1Cl [Aminopyralid triisopropanolammonium salt, 4-amino-3,6-dichloro-2-pyridinecarboxylic acid]
Visual Weed Control (%) CYPIR 11 DAA Obs ([4]; aminopyralid 8 g ae/ha alone): 3% | Visual Weed Control (%) CYPIR 11 DAA Obs ([4]; aminopyralid 24 g ae/ha alone): 23% | Visual Weed Control (%) CYPIR 18 DAA Obs ([4]; aminopyralid 8 g ae/ha alone): 8% | Visual Weed Control (%) CYPIR 18 DAA Obs ([4]; aminopyralid 16 g ae/ha alone): 25% | Visual Weed Control (%) ECLAL 11 DAA Obs ([5]; aminopyralid 8 g ae/ha alone): 76% | Visual Weed Control (%) LUDLI 11 DAA Obs ([6]; aminopyralid 8 g ae/ha alone): 73%

O=C(O)COc1nc(Cl)c(Cl)cc1Cl [Triclopyr, 2-[(3,5,6-trichloro-2-pyridinyl)oxy]acetic acid]
Visual Weed Control (%) CYPIR 11 DAA Obs ([4]; triclopyr 24 g ae/ha alone): 0% | Visual Weed Control (%) CYPIR 11 DAA Obs ([4]; triclopyr 72 g ae/ha alone): 1% | Visual Weed Control (%) CYPIR 18 DAA Obs ([4]; triclopyr 24 g ae/ha alone): 0% | Visual Weed Control (%) CYPIR 18 DAA Obs ([4]; triclopyr 48 g ae/ha alone): 6% | Visual Weed Control (%) ECLAL 11 DAA Obs ([5]; triclopyr 24 g ae/ha alone): 6% | Visual Weed Control (%) LUDLI 11 DAA Obs ([6]; triclopyr 24 g ae/ha alone): 5% | Visual Weed Control (%) RUMOB 13 DAA Obs ([1]; triclopyr 480 g ae/ha alone): 57% | Visual Weed Control (%) TAROF 13 DAA Obs ([2]; TAROF, triclopyr 240 g ae/ha alone): 27% | Visual Weed Control (%) TAROF 13 DAA Obs ([2]; TAROF, triclopyr 960 g ae/ha alone): 38% | Visual Weed Control (%) TAROF 122 DAA Obs ([2]; triclopyr 240 g ae/ha alone): 0- % | Visual Weed Control (%) TAROF 178 DAA Obs ([2]; triclopyr 480 g ae/ha alone): 0% | Visual Weed Control (%) TAROFI 178 DAA Obs ([2]; triclopyr 960 g ae/ha alone): 47% | Visual Weed Control (%) TAROF 378 DAA Obs ([2]; 378 DAA, TAROF, triclopyr 240 g ae/ha alone): 10% | Visual Weed Control (%) TAROF 378 DAA Exp* ([2]; 378 DAA, TAROF, triclopyr 480 g ae/ha alone (value printed in Exp* column)): 30% | Visual Weed Control (%) URTDI 342 DAA Obs ([3]; triclopyr 240 g ae/ha alone): 33%
